Source: the supplement of paper PMC10331698
± gives the standard deviation of the averaged measurements.

How the values were obtained:
Experiment in all cases: level (log10 ratio to DMSO vehicle control); higher = higher biomarker level / cell amount than vehicle control
[1] = compound: CN(C(=O)C(F)(F)C(F)(F)C(F)(F)F)[Si](C)(C)C [N-Methyl-N-trimethylsilylheptafluorobutyramide] (in DMSO)
Method: (§1)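 BioMAP Diversity Plus panel of 12 human primary cell co-culture systems (3C, 4H, LPS, SAg, BT, BF4T, BE3C, CASM3C, HDF3CGF, KF3CT, MyoF, Mphg). Compounds were added 1 h before stimulation and left for 24 h (MyoF 48 h; BT 72 h for soluble read-outs or 6 d for IgG). Biomarkers were read by ELISA, cytotoxicity by SRB, PBMC viability and proliferation by Alamar Blue. Each well value was divided by the mean of 8 DMSO control wells on the same plate and log10 transformed; duplicate blinded samples were tested at 4 concentrations.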

[2] = compound: O=C(O)C(F)(F)C(F)(F)C(F)(F)OC(F)(F)F [Perfluoro(4-methoxybutanoic) acid] (in DMSO)
Method: as §1

[3] = compound: O=C(O)CCC(F)(C(F)(F)F)C(F)(F)F [4,4-bis(Trifluoromethyl)-4-fluoropropanoic acid] (in DMSO)
Method: as §1

[4] = compound: OCC(F)(F)C(F)(F)C(F)(F)C(F)(F)C(F)(F)C(F)(F)CO [1H,1H,8H,8H-Perfluorooctane-1,8-diol] (in DMSO)
Method: as §1

[5] = compound: O=C(O)C(F)(OC(F)(F)C(F)(OC(F)(F)C(F)(OC(F)(F)C(F)(F)C(F)(F)F)C(F)(F)F)C(F)(F)F)C(F)(F)F [Perfluoro-(2,5,8-trimethyl-3,6,9-trioxadodecanoic)acid] (in DMSO)
Method: as §1

[6] = compound: C[C@@H]1C[C@H]2[C@@H]3CCC4=CC(=O)C=C[C@]4(C)[C@@]3(F)[C@@H](O)C[C@]2(C)[C@@]1(O)C(=O)COP(=O)(O)O [Dexamethasone sodium phosphate] (in DMSO)
Method: as §1

| Test System | level (log10) ([1]; 6700 nM) | level (log10) ([1]; 20000 nM) | level (log10) ([1]; 60000 nM) | level (log10) ([2]; 6700 nM) | level (log10) ([2]; 20000 nM) | level (log10) ([2]; 60000 nM) | level (log10) ([3]; 6700 nM) | level (log10) ([3]; 20000 nM) | level (log10) ([3]; 60000 nM) | level (log10) ([4]; 6700 nM) | level (log10) ([4]; 20000 nM) | level (log10) ([4]; 60000 nM) | level (log10) ([5]; 1100 nM) | level (log10) ([5]; 3300 nM) | level (log10) ([5]; 10000 nM) | level (log10) ([6]; 1500 nM) | level (log10) ([6]; 4400 nM) | level (log10) ([6]; 13000 nM) | level (log10) ([6]; 40000 nM) |
| --- | --- | --- | --- | --- | --- | --- | --- | --- | --- | --- | --- | --- | --- | --- | --- | --- | --- | --- | --- |
| KF3CT:CCL2/MCP-1 | -0.0175 ± 0.0092 | -0.0305 ± 0.021 | 0.0205 ± 0.056 | -0.006 ± 0.011 | 0.0105 ± 0.0021 | 0.0375 ± 0.07 | -0.011 ± 0.0057 | -0.0145 ± 0.03 | 0.0015 ± 0.0092 | -0.017 ± 0.0099 | -0.0235 ± 0.03 | 0.0005 ± 0.081 | -0.017 ± 0.0099 | -0.049 ± 0.025 | 0.011 ± 0.0099 | -0.0015 ± 0.08 | -0.0565 ± 0.049 | -0.0105 ± 0.0035 | -0.033 ± 0.016 |
| KF3CT:CD54/ICAM-1 | -0.001 ± 0.0028 | -0.0045 ± 0.0092 | -0.0065 ± 0.013 | -0.005 ± 0.024 | -0.017 | -0.002 ± 0.013 | 0.0055 ± 0.0078 | -0.0085 ± 0.0092 | 0.01 ± 0.0085 | -0.009 ± 0.0042 | 0.0015 ± 0.0092 | -0.01 ± 0.018 | 0.004 ± 0.0042 | -0.0025 ± 0.0064 | 0.013 ± 0.013 | -0.0125 ± 0.0078 | 0.01 ± 0.018 | -0.012 ± 0.011 | -0.003 ± 0.013 |
| KF3CT:CXCL8/IL-8 | 0.001 ± 0.013 | -0.0105 ± 0.00071 | 0.0115 ± 0.022 | 0.006 ± 0.017 | 0.012 ± 0.0085 | 0.014 ± 0.0099 | -0.023 ± 0.0028 | -0.0105 ± 0.00071 | -0.0115 ± 0.013 | -0.0015 ± 0.019 | -0.0215 ± 0.023 | 0 | -0.004 ± 0.0099 | -0.01 ± 0.035 | 0.0175 ± 0.056 | -0.044 ± 0.05 | -0.05 ± 0.02 | -0.045 ± 0.021 | -0.045 ± 0.0028 |
| KF3CT:CXCL9/MIG | -0.0035 ± 0.0092 | -0.0125 ± 0.0092 | 0.003 ± 0.0071 | 0.0195 ± 0.0021 | 0.0075 ± 0.0092 | 0.016 ± 0.018 | 0.01 ± 0.011 | 0.0005 ± 0.0078 | 0.006 ± 0.016 | 0.007 ± 0.011 | 0.0025 ± 0.00071 | 0.0105 ± 0.005 | 0.0045 ± 0.012 | -0.002 ± 0.0085 | 0.0045 ± 0.0021 | -0.008 ± 0.024 | 0.002 ± 0.0014 | -0.0075 ± 0.0021 | -0.01 ± 0.0014 |
| KF3CT:CXCL10/IP-10 | -0.0095 ± 0.026 | -0.011 ± 0.021 | -0.0085 ± 0.0021 | 0.002 ± 0.011 | -0.0025 ± 0.0035 | 0.006 ± 0.0099 | -0.0055 ± 0.0021 | -0.0005 ± 0.00071 | -0.0005 ± 0.0064 | -0.003 ± 0.0028 | -0.001 ± 0.014 | -0.009 ± 0.0085 | -0.0005 ± 0.0021 | 0.0035 ± 0.0078 | 0.0025 ± 0.011 | 0.0015 ± 0.0021 | 0.01 ± 0.0071 | 0.005 | 0.0055 ± 0.0064 |
| KF3CT:IL-1alpha | -0.0155 ± 0.0021 | -0.017 ± 0.0099 | 0.008 ± 0.034 | -0.003 ± 0.0099 | -0.015 ± 0.027 | 0 ± 0.021 | -0.008 ± 0.021 | -0.0105 ± 0.0064 | -0.0345 ± 0.043 | -0.0085 ± 0.022 | -0.0095 ± 0.0064 | 0.0225 ± 0.057 | -0.0015 ± 0.005 | -0.0195 ± 0.012 | 0.006 ± 0.0028 | -0.036 ± 0.018 | -0.035 ± 0.0057 | -0.0305 ± 0.00071 | -0.051 ± 0.044 |
| KF3CT:MMP-9 | -0.0235 ± 0.005 | -0.0115 ± 0.033 | 0.0055 ± 0.00071 | 0.001 ± 0.0057 | 0.0055 ± 0.0092 | 0.0205 ± 0.013 | -0.026 ± 0.025 | -0.0195 ± 0.019 | -0.008 ± 0.0085 | -0.003 ± 0.0028 | 0.009 ± 0.0014 | 0.058 ± 0.0099 | -0.0035 ± 0.00071 | -0.022 ± 0.044 | -0.0125 ± 0.016 | -0.0065 ± 0.00071 | -0.002 | -0.023 ± 0.014 | -0.0175 ± 0.013 |
| KF3CT:PAI-I | -0.02 ± 0.025 | -0.004 ± 0.014 | -0.0005 ± 0.0078 | -0.0015 ± 0.005 | -0.0115 ± 0.011 | -0.004 ± 0.018 | -0.0035 ± 0.00071 | -0.0165 ± 0.0092 | 0.003 ± 0.0071 | -0.004 ± 0.0085 | -0.008 ± 0.0071 | -0.0155 ± 0.0021 | -0.0025 ± 0.0035 | -0.018 ± 0.0071 | 0.006 ± 0.0099 | 0.0055 ± 0.0021 | 0.0235 ± 0.0092 | 0.002 ± 0.025 | 0.006 |
| KF3CT:SRB | -0.004 ± 0.0014 | -0.0095 ± 0.015 | -0.003 ± 0.013 | -0.004 ± 0.0014 | 0.0015 ± 0.0021 | -0.0015 ± 0.0064 | -0.003 ± 0.0042 | 0.004 ± 0.0071 | 0.008 ± 0.0099 | -0.003 | -0.004 ± 0.0085 | -0.0085 ± 0.0092 | 0.0005 ± 0.011 | 0.0025 ± 0.016 | -0.008 ± 0.0014 | -0.0025 ± 0.00071 | -0.0035 ± 0.0035 | -0.0005 ± 0.005 | 0.0055 ± 0.012 |
| KF3CT:TIMP-2 | -0.0315 ± 0.011 | -0.0145 ± 0.0078 | 0.0095 ± 0.035 | -0.0015 ± 0.005 | 0.007 ± 0.0042 | 0.008 ± 0.0071 | -0.0315 ± 0.039 | -0.0015 ± 0.052 | -0.0125 ± 0.0035 | 0.0065 ± 0.042 | -0.0055 ± 0.018 | -0.006 ± 0.016 | -0.0075 ± 0.013 | -0.0105 ± 0.011 | -0.001 ± 0.017 | -0.0095 ± 0.025 | -0.0005 ± 0.021 | -0.0025 ± 0.005 | 0.0155 ± 0.069 |
| KF3CT:uPA | -0.0045 ± 0.019 | 0.0135 ± 0.005 | 0.0115 ± 0.0078 | -0.0065 ± 0.005 | -0.0175 ± 0.019 | -0.0055 ± 0.011 | 0.001 ± 0.0071 | -0.0145 ± 0.028 | -0.004 ± 0.023 | 0.0085 ± 0.0078 | -0.017 ± 0.02 | -0.0115 ± 0.011 | 0.01 | 0.0045 ± 0.021 | 0.0075 ± 0.005 | 0 ± 0.011 | 0.012 ± 0.0085 | -0.0085 ± 0.00071 | -0.006 ± 0.017 |
| MyoF:CD106/VCAM-1 | -0.0125 ± 0.021 | -0.014 ± 0.024 | -0.017 ± 0.0085 | -0.0175 ± 0.0021 | -0.0205 ± 0.0092 | -0.018 ± 0.016 | -0.0065 ± 0.0078 | -0.0095 ± 0.026 | -0.0045 ± 0.015 | -0.0045 ± 0.0035 | 0.0105 ± 0.0021 | 0.0295 ± 0.011 | 0 ± 0.0028 | -0.0035 ± 0.0092 | 0.013 ± 0.0099 | -0.0825 ± 0.03 | -0.046 ± 0.0057 | -0.058 ± 0.013 | -0.0655 ± 0.016 |
| MyoF:CXCL8/IL-8 | 0.0005 ± 0.025 | 0.003 ± 0.0042 | 0.009 ± 0.027 | -0.0145 ± 0.018 | -0.004 ± 0.0042 | 0.01 ± 0.0028 | 0.0035 ± 0.0092 | 0.0085 ± 0.0078 | 0.009 ± 0.0099 | 0 ± 0.0085 | 0.004 ± 0.025 | 0 ± 0.034 | 0.0475 ± 0.077 | 0.005 ± 0.0028 | -0.006 ± 0.016 | -0.0725 ± 0.011 | -0.074 ± 0.013 | -0.1 ± 0.011 | -0.104 ± 0.0057 |
| MyoF:Collagen I | 0.0025 ± 0.019 | 0.007 ± 0.023 | 0.01 ± 0.0057 | -0.0165 ± 0.0078 | -0.013 ± 0.0028 | -0.011 ± 0.0071 | -0.0045 ± 0.012 | -0.0065 ± 0.0092 | 0.008 ± 0.0028 | -0.0045 ± 0.025 | -0.0165 ± 0.013 | -0.0145 ± 0.0035 | -0.0495 ± 0.026 | -0.0365 ± 0.0021 | -0.03 ± 0.0071 | 0.032 ± 0.021 | 0.032 ± 0.0057 | 0.006 ± 0.0071 | 0.027 ± 0.0042 |
| MyoF:Collagen III | 0.006 ± 0.0028 | 0.007 ± 0.0028 | -0.003 ± 0.0085 | -0.006 ± 0.0071 | 0.0015 ± 0.015 | 0.008 ± 0.0057 | -0.0045 ± 0.011 | -0.0205 ± 0.021 | 0.003 ± 0.02 | -0.008 ± 0.013 | -0.016 | -0.005 ± 0.0028 | -0.008 ± 0.021 | 0.0155 ± 0.00071 | 0.006 | 0.0055 ± 0.021 | 0.0255 ± 0.035 | 0.0185 ± 0.021 | 0.028 ± 0.018 |
